Patent publication US20110039762A1, “TARGETED ANTIMICROBIAL MOIETIES” (C3 JIAN, INC., priority 2009, published 2011)
“Also recorded” adds a separate entry of the source.

How the values were obtained:
[1] = tested on: microorganisms (e.g., bacteria, yeasts, fungi); experiment: Targeting peptide binding to target microorganisms (Table 3); settings: preferably 1x PBS
microorganisms = experiment: Peptides having multiple activities (targeting/binding, antimicrobial, growth or phenotype altering)
Text: In certain embodiments, peptides described herein can have multiple activities. Thus for example, a peptide can have both binding/targeting activity and antimicrobial activity. Such peptides can be used, e.g., in a chimeric construct, for any or all of these properties. Thus, for example, a peptide designated “B” in Table 8 can be used as a targeting peptide. If it is also designated G or M it can also be used for antimicrobial activity.

S. pneumoniae = experiment: Kill or inhibit growth/proliferation; morphology, biofilm and growth disruption (Tables 5, 6); assay type: cell-based, Streptococcus pneumoniae; set-up: key: A: Peptide aggregates; B: Less hyphal formation; Clumps; Diffuse clumps and small polyps; F: Diffuse growth; H: Thin; I: Growth inhibition; Microcolony formation; Rippled; Small polyps; Thick; W: Halo formation on top, microlonies on bottom; note: test concentration or dose not given here
B. subtilis = experiment: as above; assay type: cell-based, Bacillus subtilis; set-up: key: A: Peptide aggregates; B: Less hyphal formation; Clumps; Diffuse clumps and small polyps; F: Diffuse growth; H: Thin; I: Growth inhibition; Microcolony formation; Rippled; Small polyps; Thick; W: Halo formation on top, microlonies on bottom
C. jeikeium = experiment: as above; assay type: cell-based, Corynebacterium jeikeium; set-up: key: A: Peptide aggregates; B: Less hyphal formation; Clumps; Diffuse clumps and small polyps; F: Diffuse growth; H: Thin; I: Growth inhibition; Microcolony formation; Rippled; Small polyps; Thick; W: Halo formation on top, microlonies on bottom; note: test concentration or dose not given here
MRSA = experiment: as above; assay type: cell-based, Methicillin-resistant Staphylococcus aureus; set-up: key: A: Peptide aggregates; B: Less hyphal formation; Clumps; Diffuse clumps and small polyps; F: Diffuse growth; H: Thin; I: Growth inhibition; Microcolony formation; Rippled; Small polyps; Thick; W: Halo formation on top, microlonies on bottom
M. luteus = experiment: as above; assay type: cell-based, Micrococcus luteus; set-up: key: A: Peptide aggregates; B: Less hyphal formation; Clumps; Diffuse clumps and small polyps; F: Diffuse growth; H: Thin; I: Growth inhibition; Microcolony formation; Rippled; Small polyps; Thick; W: Halo formation on top, microlonies on bottom
S. epidermidis = experiment: as above; assay type: cell-based, Staphylococcus epidermidis; set-up: key: A: Peptide aggregates; B: Less hyphal formation; Clumps; Diffuse clumps and small polyps; F: Diffuse growth; H: Thin; I: Growth inhibition; Microcolony formation; Rippled; Small polyps; Thick; W: Halo formation on top, microlonies on bottom
C. jejuni = experiment: as above; assay type: cell-based, Campylobacter jejuni; set-up: key: A: Peptide aggregates; B: Less hyphal formation; Clumps; Diffuse clumps and small polyps; F: Diffuse growth; H: Thin; I: Growth inhibition; Microcolony formation; Rippled; Small polyps; Thick; W: Halo formation on top, microlonies on bottom
[2] = microorganism the targeting peptide binds, binding in aqueous buffers varied by peptide solubility
[3] = microorganism(s) the targeting peptide binds, peptide binding conducted in aqueous buffers varied by peptide solubility
Throughout, for Organism, effect (morphology, biofilm and growth disruption): test concentration or dose not given here.
Throughout, for Organism, effect: test concentration or dose not given here.

| Substance | Target(s) [1, 2] | Activities (microorganisms) | Organism, effect (B. subtilis) | Organism, effect (MRSA) | Target(s) [1, 3] | also measured |
| --- | --- | --- | --- | --- | --- | --- |
| PF-002: peptide having multiple activities (chain 1 NDDAQ; chain 2 NDDAQ; Peptide with targeting and/or antimicrobial activity) | S. epidermidis; also recorded: P. mirabilis; also recorded: C. albicans; also recorded: C. jeikeium; also recorded: C. jejuni | G B | B. subtilis (R) |  |  | Organism, effect (S. pneumoniae): S. pneumoniae (H) |
| PF-021: peptide having multiple activities (chain 1 FSLNFSKQKYVTVN; chain 2 FSLNFSKQKYVTVN; Peptide with targeting and/or antimicrobial activity) | S. epidermidis; also recorded: M. luteus; also recorded: P. mirabilis; also recorded: E. coli; also recorded: C. albicans; also recorded: E. faecalis; also recorded: C. jeikeium | G B |  | MRSA (R) |  | Organism, effect (C. jeikeium): C. jeikeium (R); Organism, effect (M. luteus): M. luteus (A); Organism, effect (S. epidermidis): S. epidermidis (A) |
| PF-025: peptide having multiple activities (chain 1 LLIIFRLWLELKWKNKK; chain 2 LLIIFRLWLELKWKNKK; Peptide with targeting and/or antimicrobial activity) | S. epidermidis and M. luteus and P. mirabilis and E. coli and P. aeruginosa and MRSA and E. faecalis and C. jejuni | G B |  | MRSA (R) |  | Organism, effect (C. jeikeium): C. jeikeium (A); Organism, effect (M. luteus): M. luteus (A); Organism, effect (S. epidermidis): S. epidermidis (S) |
| PF-036: peptide having multiple activities (chain 1 ILNRLSRIVSNEVTSLIYSLK; chain 2 ILNRLSRIVSNEVTSLIYSLK; Peptide with targeting and/or antimicrobial activity) | S. epidermidis and M. luteus and P. mirabilis and E. coli and C. albicans and MRSA and S. pneumoniae and C. jejuni | G B |  | MRSA (R) |  | Organism, effect (C. jeikeium): C. jeikeium (A); Organism, effect (M. luteus): M. luteus (A); Organism, effect (S. epidermidis): S. epidermidis (S) |
| PF-043: peptide having multiple activities (chain 1 MIKNETAYQMNELLVIRSAYAK; chain 2 MIKNETAYQMNELLVIRSAYAK; Peptide with targeting and/or antimicrobial activity) | M. luteus; also recorded: C. jejuni | G B |  | MRSA (R) |  | Organism, effect (C. jeikeium): C. jeikeium (A); Organism, effect (M. luteus): M. luteus (C); Organism, effect (S. epidermidis): S. epidermidis (D) |
| PF-052: peptide having multiple activities (chain 1 QELINEAVNLLVKSK; chain 2 QELINEAVNLLVKSK; Peptide with targeting and/or antimicrobial activity) | S. epidermidis and M. luteus and E. coli and MRSA and E. faecalis and C. jeikeium and C. jejuni | G B |  | MRSA (R) |  | Organism, effect (C. jeikeium): C. jeikeium (D); Organism, effect (M. luteus): M. luteus (A); Organism, effect (S. epidermidis): S. epidermidis (S) |
| PF-070: peptide having multiple activities (SMVKSEIVDLLNGEDNDD; Peptide with targeting and/or antimicrobial activity) | S. epidermidis; also recorded: C. jejuni | G B | B. subtilis (D) |  |  |  |
| PF-303 (EYPWSWISEPWPWDKSFYK; Peptide with targeting and/or antimicrobial activity) |  |  | B. subtilis (C) |  |  |  |
| PF-306: peptide having multiple activities (GCILPHKKDNYNYIMSKFQDLVKITSKK; Peptide with targeting and/or antimicrobial activity) |  | G B | B. subtilis (C) |  |  | Target(s) ([1]; microorganism(s) the targeting peptide binds, binding in aqueous buffers depending on peptide solubility): C. difficile |
| PF-550: peptide having multiple activities (chain 1 STENGWQEFESYADVGVDPRRYVPL; chain 2 STENGWQEFESYADVGVDPRRYVPL; Peptide with targeting and/or antimicrobial activity) |  | G B | B. subtilis (D) |  | S. pneumoniae |  |
| PF-552: peptide having multiple activities (chain 1 ELDKADAALGPAKNLAPLDVINRS; chain 2 ELDKADAALGPAKNLAPLDVINRS; Peptide with targeting and/or antimicrobial activity) |  | G B | B. subtilis (D) |  | S. pneumoniae |  |
| PF-554: peptide having multiple activities (chain 1 AKNFLTRTAEEIGEQAVREGNINGP; chain 2 AKNFLTRTAEEIGEQAVREGNINGP; Peptide with targeting and/or antimicrobial activity) |  | G B | B. subtilis (D) |  | S. pneumoniae |  |
| PF-557: peptide having multiple activities (chain 1 AANKAREQAAAEAKRKAEEQAR; chain 2 AANKAREQAAAEAKRKAEEQAR; Peptide with targeting and/or antimicrobial activity) |  | G B | B. subtilis (D) |  | S. pneumoniae |  |
| PF-561 (ESLEADVQAELDTEAAKYPALPASF; Peptide with targeting and/or antimicrobial activity) |  |  | B. subtilis (D) | MRSA (M) |  |  |
| PF-565 (RAEAEAQRQAEADAKRKAEEAARL; Peptide with targeting and/or antimicrobial activity) |  |  | B. subtilis (D) | MRSA (C) |  |  |
| PF-567: peptide having multiple activities (chain 1 QQRVKAVDASLSQVSTQVSGAVASA; chain 2 QQRVKAVDASLSQVSTQVSGAVASA; Peptide with targeting and/or antimicrobial activity) |  | G B |  | MRSA (D) | S. epidermidis and P. aeruginosa and C. albicans and MRSA and S. pneumoniae and C. jeikeium | Organism, effect (C. jeikeium): C. jeikeium (C); Organism, effect (C. jejuni): C. jejuni (D); Organism, effect (M. luteus): M. luteus (C); Organism, effect (S. pneumoniae): S. pneumoniae (D) |
| PF-569: peptide having multiple activities (chain 1 KSKISEYTEKEFLEFVEDIYTNNK; chain 2 KSKISEYTEKEFLEFVEDIYTNNK; Peptide with targeting and/or antimicrobial activity) |  | G B | B. subtilis (D) |  | M. luteus; also recorded: P. mirabilis; also recorded: S. pneumoniae; also recorded: E. faecalis; also recorded: C. jeikeium |  |
| PF-571 (SDLLYYPNENREDSPAGVVKEVKE; Peptide with targeting and/or antimicrobial activity) |  |  | B. subtilis (D) |  |  |  |
| PF-572: peptide having multiple activities (chain 1 WRASKGLPGFKAG; chain 2 WRASKGLPGFKAG; Peptide with targeting and/or antimicrobial activity) |  | G B | B. subtilis (D) |  | S. epidermidis; also recorded: M. luteus; also recorded: E. coli; also recorded: S. pneumoniae; also recorded: C. jeikeium | Organism, effect (S. pneumoniae): S. pneumoniae (R) |
| PF-574 (LVKSGKLESPYEHSEHLTLSQEKGLE; Peptide with targeting and/or antimicrobial activity) |  |  | B. subtilis (D) |  |  |  |
| PF-670 (chain 1 TVIVAPMHSGV; chain 2 TVIVAPMHSGV; Peptide with targeting and/or antimicrobial activity) |  |  |  |  |  | Organism, effect (morphology, biofilm and growth disruption) (S. pneumoniae): S. pneumoniae (H); Organism, effect (morphology, biofilm and growth disruption) (B. subtilis): B. subtilis (H) |
